Results taken from patent US5126373A, “Composition for parenteral and oral nutrition” (priority 1987, dated 1992).

Assays:
[1] = Preliminary results with 1,3-pentanediol and its esters; conditions: liver
[2] = test system: ketone bodies (R-3-hydroxybutyrate+S-3-hydroxybutyrate+acetoacetate); experiment: Total ketone body concentrations in pigs; type: in vivo, pig
Description: (§1) The pigs were given equicaloric amount of either:
The total concentration of physiological and unphysiological ketone bodies (R-3-hydroxybutyrate+S-3-hydroxybutyrate+acetoacetate) never exceeded 0.8 mM in the animal receiving RS-butanediol by the continuous intravenous route. […] Therefore, there was no marked acidosis in any of the groups.

[3] = Volume of distribution of butanediol; type: in vivo
Source text: In other experiments, the volume of distribution of butanediol is equal to 2/3 of the body wt, i.e. total body water.

[4] = test system: mitochondrial [NADH]/[NAD^+ ]; experiment: Redox parameters in blood of pigs; type: in vivo, pig; conditions: reflects the mitochondrial [NADH]/[NAD^+ ]
Source text: as §1

[5] = Noted metabolism of esters compared with butanediol alone; type: in vivo; conditions: compared with physiological oxido-reduction ratio
[6] = Blood glucose levels in unanesthetized young pigs; type: in vivo, pig; conditions: intravenous infusion 3 h or intragastric bolus
Source text: as §1

[7] = test system: ethanol withdrawal syndrome; conditions: rats; cited from earlier work
[8] = RS-butanediol concentration in blood of pigs; type: in vivo, pig
Source text: as §1

[9] = cited from earlier work
[10] = test system: alloxan-diabetic rats; conditions: cited from earlier work
[11] = test system: mammalian cells; conditions: cited from earlier work
[12] = test system: [NADH]/[NAD^+ ]; conditions: inhibition of gluconeogenesis and alcoholic hypoglycemia; cited from earlier work

## CCC(O)CCO (racemic) [RS-1,3-pentanediol]
[1]
  gluconeogenic and ketogenic substrate: is a gluconeogenic and a ketogenic substrate

## CC(O)CCO (racemic) [RS-butanediol, 1,3-butanediol]
[2]; continuous intravenous infusion
  total concentration of ketone bodies: ≤ 0.8 mM
[2]; intragastric bolus
  total ketone body concentration: about 1.5 mM
[3]; butanediol liberated in blood from plasma esterases
  osmotic effect: does not exert any osmotic effect
[3]; compared with a tracer of water
  rate of distribution into total body water: at the same rate as a tracer of water
[3]; i.e. total body water
  volume of distribution: 2/3
[4]
  [R-3-hydroxybutyrate]/[acetoacetate] ratio: increased
[5]
  3-hydroxybutyrate and acetoacetate ratio after metabolism in the liver: more reduced than physiological
[6]
  Glucose levels / hypoglycemic effect: do not exert a hypoglycemic effect
[7]
  effect on ethanol withdrawal syndrome: alleviates the ethanol withdrawal syndrome in rats
[8]; after intragastric bolus
  linear decrease of butanediol concentration in blood, time: 4 h
[8]; pig, blood, constant intravenous infusion for 3 h, 25% of hourly caloric requirement, read-out: RS-butanediol (free butanediol) concentration
  concentration at 3 h: 600 µM
[8]; pig, blood, intragastric bolus, 15% of daily caloric requirements, read-out: concentration of butanediol in the blood, peak
  Cmax: 25000 µM
[9]; diet containing 5%, humans
  adverse effect: no adverse effect
  nitrogen sparing: nitrogen was spared
[9]; via alcohol and aldehyde dehydrogenase
  metabolism in the liver: metabolised in the liver to DL-3-hydroxybutyrate

## C[C@H](O)CCO [L-1,3-butanediol]
[10]; alloxan-diabetic rats
  blood glucose level: useful in reducing the blood glucose level

## C[C@H](O)CC(=O)O [L-β-hydroxybutyrate]
[10]; test not stated
  antidiabetic properties: has demonstrated interesting antidiabetic properties
[11]
  use by mammalian cells: very well used by mammalian cells

## CCO [ethanol]
[12]
  redox shift: an increase in [NADH]/[NAD^+ ]
